24 molecules from patent US11319299B2, “Substituted carboxamides as inhibitors of WDR5 protein-protein binding” (PROPELLON THERAPEUTICS INC., priority 2016, dated 2022) can be followed below.

The test concerns the target WDR5 (Homo sapiens (Human), UniProt P61964). Nature of the test: Surface Plasmon Resonance (SPR) assay, KD and residence time. The settings on record: surface plasmon resonance (SPR); read-out: WDR5 binding affinity (KD). Format: binding.

Regarding `CC1CN(c2cc(F)c(-c3nccc(N4CCOCC4)n3)cc2NC(=O)c2c[nH]c(=O)cc2C(F)(F)F)CCN1C` (stereo in doubt) [Example 599, N-[4-fluoro-5-(4-morpholin-4-ylpyrimidin-2-yl)-2-[(3R)-3,4-dimethylpiperazin-1-yl]phenyl]-6-oxo-4-(trifluoromethyl)-1H-pyridine-3-carboxamide], the Kd – broadly, the equilibrium constant for the complex coming apart – stood at 4.18 nM. In the case of `C[C@@H]1CN(c2cc(F)c(-c3cnc(N4CCOC[C@H]4C)nc3)cc2NC(=O)c2cn(C)c(=O)cc2C(F)F)CCN1C` (stereo in doubt) [Example 607, 4-(difluoromethyl)-N-[4-fluoro-2-[(3R)-3,4-dimethylpiperazin-1-yl]-5-[2-[(3R)-3-methylmorpholin-4-yl]pyrimidin-5-yl]phenyl]-1-methyl-6-oxopyridine-3-carboxamide] it was 1.53 nM; in that of `Cc1cc(C(=O)Nc2cc(-c3cnc(N4CCOC(C)C4)nc3)c(F)cc2N2C[C@@H](C)N(C)[C@@H](C)C2)cc(C)c1F` (stereo in doubt) [Example 611, 4-fluoro-N-[4-fluoro-5-[2-[(2R)-2-methylmorpholin-4-yl]pyrimidin-5-yl]-2-[(3S,5R)-3,4,5-trimethylpiperazin-1-yl]phenyl]-3,5-dimethylbenzamide], 1.55 nM; in that of `CC1CN(c2cc(F)c(-c3cnc(N4CCC(C)(O)CC4)nc3)cc2NC(=O)c2ccc(F)cc2C(F)(F)F)CCN1C` (stereo in doubt) [Example 613, 4-fluoro-N-[4-fluoro-5-[2-(4-hydroxy-4-methylpiperidin-1-yl)pyrimidin-5-yl]-2-[(3R)-3,4-dimethylpiperazin-1-yl]phenyl]-2-(trifluoromethyl)benzamide], 0.922 nM. For the molecule `CC1CN(c2cc(F)c(-c3ccnc(N4CCOCC4)n3)cc2NC(=O)c2ccc(F)cc2C(F)(F)F)CCN1C` (stereo in doubt) [Example 614, 4-fluoro-N-[4-fluoro-5-(2-morpholin-4-ylpyrimidin-4-yl)-2-[(3R)-3,4-dimethylpiperazin-1-yl]phenyl]-2-(trifluoromethyl)benzamide], the Kd turned out to be 0.733 nM. In the case of `CC1CN(c2cc(F)c(-c3cnc(N4CCOCC4)s3)cc2NC(=O)c2c[nH]c(=O)cc2C(F)(F)F)CCN1C` (stereo in doubt) [Example 618, N-[4-fluoro-5-(2-morpholin-4-yl-1,3-thiazol-5-yl)-2-[(3R)-3,4-dimethylpiperazin-1-yl]phenyl]-6-oxo-4-(trifluoromethyl)-1H-pyridine-3-carboxamide] it was 1.13 nM; in that of `CC1CN(c2cc(F)c(-c3csc(N4CCOCC4)n3)cc2NC(=O)c2cn(C)c(=O)cc2C(F)F)CCN1C` (stereo in doubt) [Example 620, 4-(difluoromethyl)-N-[4-fluoro-5-(2-morpholin-4-yl-1,3-thiazol-4-yl)-2-[(3R)-3,4-dimethylpiperazin-1-yl]phenyl]-1-methyl-6-oxopyridine-3-carboxamide], 4.19 nM.

On to `CC1CN(c2cc(F)c(-c3cnc(N4CCOCC4)s3)cc2NC(=O)c2cn(C)c(=O)cc2C(F)F)CCN1C` (stereo in doubt) [Example 621, 4-(difluoromethyl)-N-[4-fluoro-5-(2-morpholin-4-yl-1,3-thiazol-5-yl)-2-[(3R)-3,4-dimethylpiperazin-1-yl]phenyl]-1-methyl-6-oxopyridine-3-carboxamide], for which the Kd worked out at 4.84 nM. On to `CC1CN(c2cc(F)c(-c3cc(C(=O)NC(C)(C)CC(C)(C)C)c(F)cc3F)cc2NC(=O)c2ccc(F)cc2C(F)(F)F)CCN1C` (stereo in doubt) [Example 625, 2,4-difluoro-5-[2-fluoro-5-[[4-fluoro-2-(trifluoromethyl)benzoyl]amino]-4-[(3R)-3,4-dimethylpiperazin-1-yl]phenyl]-N-(2,4,4-trimethylpentan-2-yl)benzamide], for which the Kd was 172 nM. In the case of `C[C@@H]1CN(c2cc(F)c(-c3cnc(N4CCOC[C@H]4C)nc3)cc2NC(=O)c2c[nH]c(=O)cc2C(F)F)CCN1C` (stereo in doubt) [Example 628, 4-(difluoromethyl)-N-[4-fluoro-2-[(3R)-3,4-dimethylpiperazin-1-yl]-5-[2-[(3R)-3-methylmorpholin-4-yl]pyrimidin-5-yl]phenyl]-6-oxo-1H-pyridine-3-carboxamide] it was 1.25 nM. As for `CC1CN(c2cc(F)c(-c3cc(C(N)=O)c(F)cc3F)cc2NC(=O)c2ccc(F)cc2C(F)(F)F)CCN1C` (stereo in doubt) [Example 635, 2,4-difluoro-5-[2-fluoro-5-[[4-fluoro-2-(trifluoromethyl)benzoyl]amino]-4-[(3R)-3,4-dimethylpiperazin-1-yl]phenyl]benzamide], the Kd was 66.9 nM. In the case of `CC1CN(c2cc(F)c(C3=CCCN(c4ncccn4)C3)cc2NC(=O)c2ccc(F)cc2C(F)(F)F)CCN1C` (stereo in doubt) [Example 649, 4-fluoro-N-[4-fluoro-5-(1-pyrimidin-2-yl-3,6-dihydro-2H-pyridin-5-yl)-2-[(3R)-3,4-dimethylpiperazin-1-yl]phenyl]-2-(trifluoromethyl)benzamide] it was 1.87 nM.

As to `CC1CN(c2cc(F)c(C3=CCCN(c4ncc(C=O)cn4)C3)cc2NC(=O)c2ccc(F)cc2C(F)(F)F)CCN1C` (stereo in doubt) [Example 650, 4-fluoro-N-[4-fluoro-5-[1-(5-formylpyrimidin-2-yl)-3,6-dihydro-2H-pyridin-5-yl]-2-[(3R)-3,4-dimethylpiperazin-1-yl]phenyl]-2-(trifluoromethyl)benzamide], the Kd turned out to be 5.18 nM. As for `CC1CN(c2cc(F)c(-c3ccc(C(N)=O)c(F)c3)cc2NC(=O)c2cn(C)c(=O)cc2C(F)F)CCN1C` (stereo in doubt) [Example 652, N-[5-(4-carbamoyl-3-fluorophenyl)-4-fluoro-2-[(3R)-3,4-dimethylpiperazin-1-yl]phenyl]-4-(difluoromethyl)-1-methyl-6-oxopyridine-3-carboxamide], the figure is 5.29 nM; as for `CNC(=O)c1ccc(-c2cc(NC(=O)c3cn(C)c(=O)cc3C(F)F)c(N3CCN(C)C(C)C3)cc2F)cc1F` (stereo in doubt) [Example 653, 4-(difluoromethyl)-N-[4-fluoro-5-[3-fluoro-4-(methylcarbamoyl)phenyl]-2-[(3R)-3,4-dimethylpiperazin-1-yl]phenyl]-1-methyl-6-oxopyridine-3-carboxamide], 3.43 nM. In the case of `CC1CN(c2cc(F)c(-c3ccnc(N4CCOCC4)n3)cc2NC(=O)c2ccc(F)cc2C(F)F)CCN1C` (stereo in doubt) [Example 655, 2-(difluoromethyl)-4-fluoro-N-[4-fluoro-5-(2-morpholin-4-ylpyrimidin-4-yl)-2-[(3R)-3,4-dimethylpiperazin-1-yl]phenyl]benzamide] it was 1.06 nM. On to `CC1CN(c2cc(F)c(-c3cc(F)c(C(N)=O)c(F)c3)cc2NC(=O)c2ccc(F)cc2C(F)(F)F)CCN1C` (stereo in doubt) [Example 657, 2,6-difluoro-4-[2-fluoro-5-[[4-fluoro-2-(trifluoromethyl)benzoyl]amino]-4-[(3R)-3,4-dimethylpiperazin-1-yl]phenyl]benzamide], for which the Kd was 4.69 nM. Take `C[C@@H]1CN(c2nccc(-c3cc(NC(=O)c4ccc(F)cc4C(F)(F)F)c(N4CCN(C)[C@H](C)C4)cc3F)n2)CCO1` (stereo in doubt) [Example 660, 4-fluoro-N-[4-fluoro-2-[(3R)-3,4-dimethylpiperazin-1-yl]-5-[2-[(2R)-2-methylmorpholin-4-yl]pyrimidin-4-yl]phenyl]-2-(trifluoromethyl)benzamide]: the Kd amounted to 0.29 nM. Regarding `CC1CN(c2cc(F)c(-c3ccnc(N4CCOCC4)n3)cc2NC(=O)c2cn(C)c(=O)cc2C(F)F)CCN1C` (stereo in doubt) [Example 664, 4-(difluoromethyl)-N-[4-fluoro-5-(2-morpholin-4-ylpyrimidin-4-yl)-2-[(3R)-3,4-dimethylpiperazin-1-yl]phenyl]-1-methyl-6-oxopyridine-3-carboxamide], the Kd turned out to be 2.68 nM. As for `CC1CN(c2cc(F)c(-c3ccc(C(=O)NC(C)(C)CC(C)(C)C)c(F)c3F)cc2NC(=O)c2ccc(F)cc2C(F)(F)F)CCN1C` (stereo in doubt) [Example 666, 2,3-difluoro-4-[2-fluoro-5-[[4-fluoro-2-(trifluoromethyl)benzoyl]amino]-4-[(3R)-3,4-dimethylpiperazin-1-yl]phenyl]-N-(2,4,4-trimethylpentan-2-yl)benzamide], the figure is 117 nM; as for `CC1CN(c2cc(F)c(-c3ccc(C(N)=O)c(F)c3F)cc2NC(=O)c2ccc(F)cc2C(F)(F)F)CCN1C` (stereo in doubt) [Example 668, 2,3-difluoro-4-[2-fluoro-5-[[4-fluoro-2-(trifluoromethyl)benzoyl]amino]-4-[(3R)-3,4-dimethylpiperazin-1-yl]phenyl]benzamide], 18.3 nM; as for `CC1CN(c2cc(F)c(-c3cccc(N4CCOCC4)n3)cc2NC(=O)c2cn(C)c(=O)cc2C(F)F)CCN1C` (stereo in doubt) [Example 672, 4-(difluoromethyl)-N-[4-fluoro-5-(6-morpholin-4-ylpyridin-2-yl)-2-[(3R)-3,4-dimethylpiperazin-1-yl]phenyl]-1-methyl-6-oxopyridine-3-carboxamide], 5.02 nM. As for `CC1CN(c2cc(F)c(-c3cccc(N4CCOCC4)n3)cc2NC(=O)c2ccc(F)cc2C(F)(F)F)CCN1C` (stereo in doubt) [Example 673, 4-fluoro-N-[4-fluoro-5-(6-morpholin-4-ylpyridin-2-yl)-2-[(3R)-3,4-dimethylpiperazin-1-yl]phenyl]-2-(trifluoromethyl)benzamide], the figure is 3.18 nM. In the case of `CC1CN(c2cc(F)c(C3=CCN(c4ncc(C#N)s4)CC3)cc2NC(=O)c2c[nH]c(=O)cc2C(F)F)CCN1C` (stereo in doubt) [Example 686, N-[5-[1-(5-cyano-1,3-thiazol-2-yl)-3,6-dihydro-2H-pyridin-4-yl]-4-fluoro-2-[(3R)-3,4-dimethylpiperazin-1-yl]phenyl]-4-(difluoromethyl)-6-oxo-1H-pyridine-3-carboxamide] it was 1.99 nM.
